Source: patent publication US7786041B2, “Synergistic crop plant-compatible herbicidal compositions comprising herbicides from the group of the benzoylcyclohexanediones” (priority 2005, dated 2010)

Tests used:
[1] = test system: harmful plants Abutilon theophrasti, Ambrosia elatior, Digitaria sanguinalis, Echinochloa crus galli, Pharbitis purpureum, Fallopia convolvulus, Setaria …; assay: Herbicidal post-emergence action, second test series, mean over ten harmful plants; format: in vivo; conditions: Table 5, mean value of the herbicidal actions against ten harmful plants, each herbicide 200 g of a.i./ha, safener C1 100 g of a.i./ha
Description: (§1) Seeds of monocotyledonous and dicotyledonous weed and crop plants are placed into sandy loam in wood fiber pots or in plastic pots, covered with soil and cultivated in a greenhouse, including during the vegetation period outdoors outside of the greenhouse, under good growth conditions. 2-3 weeks after sowing, the test plants are treated at the one- to three-leaf stage. The test compounds, formulated as wettable powders (WP) or liquid (EC) are, in various dosages with a water application rate of 300 l/ha (converted), with added wetting agent (0.2 to 0.3%), sprayed onto the plants and the surface of the soil. 3 to 4 weeks after the treatment of the test plants, the effect of the preparations is rated visually in comparison to untreated controls (herbicidal effect in percent (%): 100% effect=plants have died, 0% effect=like control plants).
(§2) In a second test series, the herbicidal action and the damage to corn of the compositions according to the invention (A+Bx+C1) was compared to that of the herbicide alone (A) and to that of a herbicidal composition (A+C1) known from the prior art.

corn = assay: Post-emergence damage to corn, second test series; conditions: in vivo
Description: as §1, §2

Structure (SMILES): CS(=O)(=O)c1ccc(C(=O)C2C(=O)CCCC2=O)c(Cl)c1COCC(F)(F)F [A]
- Herbicidal action [1]: 86%
- Damage to corn (corn): 11%
